The values that follow come from patent publication US8669257B2, “Phenazine derivatives and uses thereof as potassium channel modulators” (The Johns Hopkins University, priority 2007, dated 2014).

The assay concerns calcium influx in Jurkat T-cells. Kind of assay: Calcium imaging assay: store-depletion induced calcium influx in Jurkat T-cells. It is filed as cell-based, human. The note with it: thapsigargin then 2 mM Ca2+; clofazimine preincubated 5 min. As to the method: JurkaT-cells were attached to L-lysine-coated glass dishes (MatTek). Cells were loaded with fura-2-AM (Invitrogen_F-1201) for 45 min before they were washed sequentially with growth medium and Ca^2+-free HBSS. Fluorescence excitation wavelengths were set at 350 and 380 nm, respectively, on a Zeiss Axiovert 200M microscope while emission wavelength was set at 510 nm. Changes in intracellular calcium concentrations were determined by fluorescence intensity ratio ([…]/F380).

`Clc1ccc(COC(Cn2ccnc2)c2ccc(Cl)cc2Cl)cc1` (centres unmarked) [econazole]: the “effect on calcium entry” value is “abrogated calcium entry”. Then `[Gd]` [gadolinium], with “abrogated calcium entry”.
